The values that follow come from ChEMBL document CHEMBL1201862, “PubChem BioAssay data set” (2004).

Assay [1] is described as follows: blockers of HIV-1 envelope-mediated cell-cell fusion – cherry-pick, dose response (AID 652057). The class given is functional, cell-based.
Assay [2] is described as follows: viability loss in CEM21 cells – cell-based, CellTiter-Glo luminescence, cherry-picked, cytotoxicity control for viral fusion inhibitor project, dose response (AID 652042).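 Note: potency for signal decrease meaning cytotoxicity.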 The class given is functional. (Cellular ATP, detected with luciferase, serves as a proxy for viable cell number.)
Assay [3] in a line: HIV-1 AD8 envelope cell-cell fusion blockers – cherry-pick, dose response (AID 652062).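 Note: luciferase signal from cell-cell fusion driven by HIV-1 clade B AD8 Env; potency is for inhibitors of fusion seen as a drop in luminescence.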 The class given is functional, cell-based.
Assay [4] in a line: P. falciparum Dd2 growth inhibitors, dose response, SYBR Green, cherry-picked samples (AID 1159567). The class given is functional, cell-based.
Another assay concerns the target T1, Estrogen receptor (Homo sapiens, UniProt P03372).
T1 sequence (P03372 whole entry): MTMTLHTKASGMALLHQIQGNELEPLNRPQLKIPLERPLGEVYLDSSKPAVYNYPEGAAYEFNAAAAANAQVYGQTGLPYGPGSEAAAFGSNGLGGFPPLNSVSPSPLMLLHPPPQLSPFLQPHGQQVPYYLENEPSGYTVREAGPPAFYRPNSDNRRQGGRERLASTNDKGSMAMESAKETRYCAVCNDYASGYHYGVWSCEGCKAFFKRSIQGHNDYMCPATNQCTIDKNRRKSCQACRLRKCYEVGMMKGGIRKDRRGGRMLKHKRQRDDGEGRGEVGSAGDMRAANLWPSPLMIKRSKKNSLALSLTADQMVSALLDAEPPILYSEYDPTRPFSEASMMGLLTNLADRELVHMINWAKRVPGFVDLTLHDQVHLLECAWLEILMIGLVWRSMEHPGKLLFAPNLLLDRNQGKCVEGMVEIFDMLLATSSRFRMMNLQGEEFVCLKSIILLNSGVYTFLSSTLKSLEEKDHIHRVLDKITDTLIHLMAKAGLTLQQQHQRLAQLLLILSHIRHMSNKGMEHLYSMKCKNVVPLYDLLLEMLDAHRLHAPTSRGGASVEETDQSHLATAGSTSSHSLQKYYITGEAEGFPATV

The target of assay [5] is T2, Acyl-homoserine lactone acylase PvdQ (Pseudomonas aeruginosa (strain LESB58), UniProt Q9I194).
T2 sequence (Q9I194 whole entry): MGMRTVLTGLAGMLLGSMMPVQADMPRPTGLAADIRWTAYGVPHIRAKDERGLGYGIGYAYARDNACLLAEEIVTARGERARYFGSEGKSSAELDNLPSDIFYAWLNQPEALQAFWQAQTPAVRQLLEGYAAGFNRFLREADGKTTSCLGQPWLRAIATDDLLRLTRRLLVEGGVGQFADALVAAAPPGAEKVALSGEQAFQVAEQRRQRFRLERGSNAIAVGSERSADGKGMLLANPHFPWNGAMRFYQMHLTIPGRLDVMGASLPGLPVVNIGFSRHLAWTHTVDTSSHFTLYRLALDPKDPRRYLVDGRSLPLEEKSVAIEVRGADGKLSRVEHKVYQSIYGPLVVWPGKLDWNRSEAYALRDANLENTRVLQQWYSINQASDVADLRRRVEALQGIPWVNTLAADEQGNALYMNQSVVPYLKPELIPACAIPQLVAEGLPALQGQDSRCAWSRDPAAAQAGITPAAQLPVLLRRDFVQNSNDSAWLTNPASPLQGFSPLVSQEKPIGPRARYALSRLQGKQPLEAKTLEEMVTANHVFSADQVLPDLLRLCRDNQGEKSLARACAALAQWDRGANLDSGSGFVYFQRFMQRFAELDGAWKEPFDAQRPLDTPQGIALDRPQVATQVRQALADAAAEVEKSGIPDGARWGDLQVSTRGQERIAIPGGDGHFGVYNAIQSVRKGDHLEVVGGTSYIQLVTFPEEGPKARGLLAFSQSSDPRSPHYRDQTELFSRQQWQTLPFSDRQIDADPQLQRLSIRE
In words: PvdQ acylase enzyme activity blockers – biochemical, fluorescence, plate reader and imaging, cherry-picks, dose response (AID 493231).

Assay [6] in a line: general mammalian cell viability loss – inhibitor set, cherry-pick, set 2, cytotoxicity control for miR-122 modulator project, dose response (AID 720697). The class given is functional, cell-based.
Assay [7] can be described thus: toxicity to human hepatoma HepG2 cells – cell-based, cherry-picked samples, cytotoxicity control, dose response (AID 1159577). It is filed as functional.
For assay [8], the target named is Luciferin 4-monooxygenase (Photinus pyralis, UniProt P08659). Briefly: inhibition of purified Photinus pyralis luciferase – biochemical, luminescence, dose response (AID 1891).
Sequence of Luciferin 4-monooxygenase (P08659 whole entry): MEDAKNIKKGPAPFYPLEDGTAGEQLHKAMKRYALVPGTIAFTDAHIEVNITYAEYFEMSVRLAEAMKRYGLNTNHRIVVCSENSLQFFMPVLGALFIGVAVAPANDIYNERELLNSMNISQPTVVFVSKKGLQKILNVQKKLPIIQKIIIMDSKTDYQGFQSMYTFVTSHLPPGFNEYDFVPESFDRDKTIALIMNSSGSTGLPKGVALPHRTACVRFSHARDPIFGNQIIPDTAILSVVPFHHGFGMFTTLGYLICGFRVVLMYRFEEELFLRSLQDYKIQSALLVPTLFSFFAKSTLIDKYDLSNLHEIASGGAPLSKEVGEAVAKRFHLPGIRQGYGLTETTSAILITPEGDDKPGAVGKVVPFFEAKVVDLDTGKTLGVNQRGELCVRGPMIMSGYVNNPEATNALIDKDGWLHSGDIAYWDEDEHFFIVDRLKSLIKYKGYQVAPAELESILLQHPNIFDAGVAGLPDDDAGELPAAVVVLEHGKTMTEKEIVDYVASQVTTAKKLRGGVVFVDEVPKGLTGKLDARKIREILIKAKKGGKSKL
Assay [9] can be described thus: Luminescence Cell-Based Dose Confirmation HTS to Identify Inhibitors of Platelet Dense Granule Release. [Related pubchem assays: 1663 (Primary HTS), 1678 (Summary of Project)]. It is filed as functional.
Assay [10] concerns the target SWI/SNF-related matrix-associated actin-dependent regulator of chromatin subfamily A member 2 (Homo sapiens, UniProt P51531). In words: Luminescence-based cell-based high throughput dose response assay to identify activators of the function of SWI/SNF related, matrix associated, actin dependent regulator of chromatin, subfamily a, member 2 (SMARCA2, BRM). It is filed as functional.

Assay [11] can be described thus: Counterscreen for activators of the function of SWI/SNF related, matrix associated, actin dependent regulator of chromatin, subfamily a, member 2 (SMARCA2, BRM): Luminescence-based cell-based high throughput dose response assay to identify non-selective compounds using the VP16 reporter assay. The class given is functional.
Assay [12] has as its target T3, Estrogen receptor beta (Homo sapiens, UniProt Q92731).
Assay [13] deals with T3, Estrogen receptor beta. In words: blockers of SRC-3 recruitment to ERβ – biochemical, ELISA, streptavidin-HRP readout, orthogonal assay, confirmation (AID 1060).
The target of assay [14] is T4, Calpain-2 catalytic subunit (Sus scrofa, UniProt P43367).
T4 sequence (P43367 whole entry): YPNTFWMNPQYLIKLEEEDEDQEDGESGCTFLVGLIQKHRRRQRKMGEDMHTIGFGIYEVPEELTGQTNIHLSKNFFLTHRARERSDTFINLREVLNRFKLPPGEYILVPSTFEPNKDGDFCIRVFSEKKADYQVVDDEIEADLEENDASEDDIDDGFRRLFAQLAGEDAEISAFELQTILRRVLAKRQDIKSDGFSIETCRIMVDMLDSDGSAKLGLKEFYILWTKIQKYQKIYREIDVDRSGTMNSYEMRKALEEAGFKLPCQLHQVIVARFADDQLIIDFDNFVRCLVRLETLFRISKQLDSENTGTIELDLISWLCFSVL
Briefly: m-calpain protease blockers, concentration series – biochemical, fluorogenic peptide substrate, dose response (AID 1420). The class given is functional.

The nature of assay [15]: blockers of HIV-1 ZM109 envelope-driven cell-cell fusion – HeLa effector, CEM target cells, luciferase, cherry-pick, dose response (AID 652058).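 Note: luciferase signal from HIV-1 Env mediated cell-cell fusion of effector and target cells.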 The class given is functional, cell-based.
Assay [16] is described as follows: off-target signal loss in HeLa-CEM21 co-culture – HeLa F-luc CTL cells, cherry-picked, counter-screen for HIV-1 Env fusion inhibitor project, dose response (AID 652040).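 Note: potency for signal decrease marking cytotoxic or nonspecific inhibition.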 It is filed as functional, cell-based. A general note: The purpose of a counterscreen is to sort out artefacts and off-target activity.
Assay [17] in a line: general mammalian cell viability loss – activator set, cherry-pick, cytotoxicity control for miR-122 modulator project, dose response (AID 720690).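 Note: HEK293T human cells scored for general mammalian cytotoxicity.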 It is filed as functional, cell-based.
Assay [18] deals with T5, Carboxy-terminal domain RNA polymerase II polypeptide A small phosphatase 1 (Homo sapiens, UniProt Q9GZU7).
T5 sequence (Q9GZU7 whole entry): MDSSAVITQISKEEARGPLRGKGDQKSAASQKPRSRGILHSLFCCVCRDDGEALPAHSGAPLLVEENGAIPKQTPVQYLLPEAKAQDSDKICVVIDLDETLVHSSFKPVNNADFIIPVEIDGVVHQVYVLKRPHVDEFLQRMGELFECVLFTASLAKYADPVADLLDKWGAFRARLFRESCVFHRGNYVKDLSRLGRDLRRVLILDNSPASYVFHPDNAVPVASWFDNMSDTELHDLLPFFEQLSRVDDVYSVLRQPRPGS
In words: CTDSP1 inhibitors, concentration-response, biochemical, absorbance readout, ultra-high-throughput screen actives (AID 540297). It is filed as functional.

A further assay addresses T6, Protein Tat (Human immunodeficiency virus type 1 group M subtype B (isolate HXB2)(HIV-1), UniProt P04608).
T6 sequence (P04608 whole entry): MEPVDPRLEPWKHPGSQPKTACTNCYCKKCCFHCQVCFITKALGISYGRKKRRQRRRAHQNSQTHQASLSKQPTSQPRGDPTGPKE
The class given is functional.

The nature of assay [19]: Luminescence-based counterscreen assay for KLF5 inhibitors: dose response cell-based high throughput screening assay to identify cytotoxic compounds using the IEC-6 intestinal epithelial cell line. [Related pubchem assays: 1700 (Primary screen.), 1834 (Confirmation screen.), 1858 (Summary AID.), 1905 (Counterscreen.)]. The class given is functional.
The subject of another assay is INS1. In words: INS-1E survival protection against cytokine death – cell-based, luminescence, retest, dose response (AID 449756).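 Note: cell death triggered by IL-1 beta plus TNF-alpha plus IFN-gamma mixture; protective hits raise ATP signal compared with cytokine alone wells.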 The class given is functional. The conditions noted are these: Rattus norvegicus.

Each structure is given as a SMILES string. The source made the active and inactive calls. Bounds are passed on as bounds.

T3 sequence (Q92731 whole entry): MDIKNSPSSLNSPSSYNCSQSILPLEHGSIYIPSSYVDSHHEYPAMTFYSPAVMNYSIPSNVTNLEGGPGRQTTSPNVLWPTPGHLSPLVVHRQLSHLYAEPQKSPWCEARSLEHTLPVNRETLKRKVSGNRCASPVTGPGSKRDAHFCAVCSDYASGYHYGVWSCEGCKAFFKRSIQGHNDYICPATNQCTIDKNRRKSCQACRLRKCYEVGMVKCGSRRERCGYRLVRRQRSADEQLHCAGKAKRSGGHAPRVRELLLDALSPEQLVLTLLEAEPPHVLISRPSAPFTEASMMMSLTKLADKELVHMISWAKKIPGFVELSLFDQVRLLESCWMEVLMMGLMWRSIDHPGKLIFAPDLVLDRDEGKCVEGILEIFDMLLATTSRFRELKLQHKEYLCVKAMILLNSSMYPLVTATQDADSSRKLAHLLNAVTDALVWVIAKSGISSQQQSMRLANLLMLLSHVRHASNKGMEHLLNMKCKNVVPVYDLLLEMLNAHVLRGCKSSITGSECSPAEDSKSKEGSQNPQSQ
Sequence of SWI/SNF-related matrix-associated actin-dependent regulator of chromatin subfamily A member 2 (P51531 whole entry): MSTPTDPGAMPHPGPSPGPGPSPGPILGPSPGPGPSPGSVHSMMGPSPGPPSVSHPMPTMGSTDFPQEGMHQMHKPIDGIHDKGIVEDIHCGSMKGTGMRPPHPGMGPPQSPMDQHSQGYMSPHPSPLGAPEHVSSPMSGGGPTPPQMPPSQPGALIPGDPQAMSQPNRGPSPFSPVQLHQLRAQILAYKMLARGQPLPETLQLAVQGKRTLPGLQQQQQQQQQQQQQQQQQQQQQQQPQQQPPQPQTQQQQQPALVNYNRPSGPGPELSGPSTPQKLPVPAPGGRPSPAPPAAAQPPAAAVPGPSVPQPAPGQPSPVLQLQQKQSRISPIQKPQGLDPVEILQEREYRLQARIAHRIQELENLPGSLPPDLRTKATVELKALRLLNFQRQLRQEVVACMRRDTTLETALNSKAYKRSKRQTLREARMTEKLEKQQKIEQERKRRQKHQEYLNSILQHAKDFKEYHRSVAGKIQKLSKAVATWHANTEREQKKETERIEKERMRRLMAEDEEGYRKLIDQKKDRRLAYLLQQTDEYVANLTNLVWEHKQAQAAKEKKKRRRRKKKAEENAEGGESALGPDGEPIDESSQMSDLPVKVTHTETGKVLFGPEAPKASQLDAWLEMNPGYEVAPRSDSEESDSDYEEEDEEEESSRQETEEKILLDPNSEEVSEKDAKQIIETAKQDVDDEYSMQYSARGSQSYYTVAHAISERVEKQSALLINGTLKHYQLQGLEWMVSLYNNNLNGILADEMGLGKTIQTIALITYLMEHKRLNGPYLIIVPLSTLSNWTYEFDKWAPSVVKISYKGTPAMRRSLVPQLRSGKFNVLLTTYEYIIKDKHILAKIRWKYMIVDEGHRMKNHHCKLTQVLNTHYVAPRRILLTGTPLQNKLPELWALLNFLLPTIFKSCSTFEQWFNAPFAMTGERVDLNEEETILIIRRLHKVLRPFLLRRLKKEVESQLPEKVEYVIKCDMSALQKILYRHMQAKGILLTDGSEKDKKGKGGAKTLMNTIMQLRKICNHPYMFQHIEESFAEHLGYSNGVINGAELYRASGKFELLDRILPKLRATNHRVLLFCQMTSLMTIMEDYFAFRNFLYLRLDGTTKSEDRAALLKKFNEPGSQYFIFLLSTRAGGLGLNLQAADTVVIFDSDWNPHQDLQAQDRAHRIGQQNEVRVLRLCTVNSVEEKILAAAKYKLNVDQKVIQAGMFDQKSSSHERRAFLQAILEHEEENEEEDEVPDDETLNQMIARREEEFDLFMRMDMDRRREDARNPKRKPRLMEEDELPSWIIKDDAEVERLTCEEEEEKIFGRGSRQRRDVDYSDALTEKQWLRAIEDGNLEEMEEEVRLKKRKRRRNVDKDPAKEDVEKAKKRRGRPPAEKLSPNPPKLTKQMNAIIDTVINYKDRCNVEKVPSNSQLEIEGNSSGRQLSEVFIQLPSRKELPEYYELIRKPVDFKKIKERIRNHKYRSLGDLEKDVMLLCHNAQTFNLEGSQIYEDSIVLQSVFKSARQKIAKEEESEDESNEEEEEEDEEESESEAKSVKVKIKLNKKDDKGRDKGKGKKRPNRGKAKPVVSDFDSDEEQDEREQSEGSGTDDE

One may read the AC50 as the concentration at which the activity in the assay is half-maximal. For the molecule `C[C@H]1CN([C@@H](C)CO)C(=O)c2c(c3ccccc3n2C)-c2ccccc2CO[C@@H]1CN(C)C(=O)Cc1ccccc1`, the AC50 in assay [1] is < 0.26 µM (active); in [2], 27.4 µM (active); in assay [3] it was < 0.26 µM (active); in assay [4], 3.45 µM (active).
Usually IC50 stands for the point on the concentration scale where inhibition reaches its midpoint. As for `CC(=O)NC(C)C(=O)OCC(=O)Nc1ccc(Br)cc1` (stereo unspecified), the IC50 on Estrogen receptor was > 50 µM (not active).
For the molecule `COc1ccc(N2CCN(C(=O)c3ccc(Br)o3)CC2)cc1`, in assay [5], the AC50 is 7.33 µM (active).
In the case of `CN(C[C@H]1N[C@@H](CO)[C@H]1c1ccc(-c2ccccc2)cc1)C(=O)C1CCC1`, in [6], the AC50 was 10.2 µM (active).
As for `CCC(=O)c1ccc(OC(=O)c2cccs2)cc1`, the AC50 in assay [5] is > 100 µM (inactive).
On to `O=C(C[C@H]1C[C@H]2c3cc(NS(=O)(=O)c4ccc(F)cc4)ccc3O[C@H]2[C@H](CO)O1)NCc1ccc(Cl)cc1`, for which the AC50 is 6.82 µM (active) in assay [4] and > 39 µM (inactive) in assay [7].
One may read the EC50 as the concentration needed to bring the measured effect to its halfway point. For the molecule `CCN(CC)c1ccc(Nc2cc3n(c(=O)n2)CCc2cc(OC)c(OC)cc2-3)cc1`, the EC50 in assay [8] is > 112 µM (not active); in assay [9], > 112 µM (not active); in [10], > 91.2 µM (inactive); in assay [11] it was > 91.2 µM (inactive).
Consider `CC(=N)/C(C#N)=C(/O)CSc1nnc(COc2ccccc2Cl)o1`, for which the IC50 was 37.2 µM (not active) at Estrogen receptor, 8.99 µM (active) at Estrogen receptor beta [12], 5.64 µM (not active) against Estrogen receptor beta [13] and < 0.4 µM (not active) in assay [14].
As for `CC[C@@]12C(=O)N(c3cccc(Cl)c3)C(=O)N1[C@H](c1ccc(Br)cc1)[C@@H]1C(=O)N(C(C)(C)C)C(=O)[C@@H]12`, the AC50 in [1] was < 0.26 µM (active); in assay [2], 65.5 µM (active); in assay [15], < 0.26 µM (active); in assay [16] it was < 0.26 µM (active); in assay [3] it was 0.342 µM (active).
Consider `COC(=O)c1ccc(OC(=O)c2cccs2)cc1`, for which, in assay [5], the AC50 is 7.15 µM (active).
Still for that read-out and setting: then `Cn1cccc1C(C#N)c1ccccc1C#N` (stereo unspecified), with 7.71 µM (active).
Regarding `CC(C)CC#Cc1ccc([C@H]2[C@@H](CO)N3CCCCN(S(=O)(=O)Cc4ccccc4)C[C@H]23)cc1`, the values for the half-maximal activity concentration (AC50) in assay [17], in assay [4] and in assay [7] were 15 µM (active), 5.43 µM (active) and 8.87 µM (active), respectively.
As to `O=S(=O)(NCc1csc(-c2cccnc2)n1)c1ccc(Cl)s1`, the 50% inhibitory concentration (IC50) at Estrogen receptor is 13.6 µM (active); on Estrogen receptor beta [12] it was 11.8 µM (active); on Estrogen receptor beta [13], 99.4 µM (not active).
Consider `CCOC(=O)C1=C(O)/C(=C\c2ccc(CNC(=O)C(=O)Nc3ccccc3)o2)N=C1C`, for which the IC50 at Estrogen receptor was 5.73 µM (active); on Estrogen receptor beta [12], < 1.56 µM (active); on Estrogen receptor beta [13], 1.95 µM (not active); in assay [18], 8.55 µM (active); at Protein Tat it was 5.9 µM (inconclusive).
Consider `CCCCN1C(=O)NC(=O)C2(Cc3ccccc3N3CCOCC32)C1=O` (stereo unspecified), for which the IC50 at Protein Tat was > 100 µM (active).
For the molecule `CN(C)c1ccc(/C=N/Nc2cccc(C(=O)O)c2)cc1`, the 50% inhibitory concentration (IC50) in assay [19] was > 39.8 µM (not active).
Consider `O=C(Nc1cccnc1)c1cccs1`, for which the IC50 was 38.4 µM (not active) in [19] and > 50 µM (not active) in assay [14]. In addition, the AC50 in the assay on INS1 is 6.6 µM (active).
